# How the values were obtained:
# Assay in all cases: KinomeScan kinase panel
# Assay type in all cases: binding
# DDR1 = molecular target: T1, DDR1 (Homo sapiens, UniProt Q08345)
# T1 construct: purchased DiscoveRx Corporation (KinomeScan)
# In short: (§1)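 Tested at 1000 nM in the KinomeScan 442-kinase competition binding panel, with inhibition of each kinase or mutant reported at that single concentration.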
# LYN = molecular target: T2, LYN (Homo sapiens, UniProt P07948)
# T2 construct: purchased DiscoveRx Corporation (KinomeScan)
# In short: as §1
# MEK2 = molecular target: T3, MEK2 (Homo sapiens, UniProt P36507)
# T3 construct: purchased DiscoveRx Corporation (KinomeScan)
# In short: as §1
# GRK4 = molecular target: T4, GRK4 (Homo sapiens, UniProt P32298)
# T4 construct: purchased DiscoveRx Corporation (KinomeScan)
# In short: as §1
# PRKD3 = molecular target: T5, PRKD3 (Homo sapiens, UniProt O94806)
# T5 construct: purchased DiscoveRx Corporation (KinomeScan)
# T5 sequence (O94806 whole entry): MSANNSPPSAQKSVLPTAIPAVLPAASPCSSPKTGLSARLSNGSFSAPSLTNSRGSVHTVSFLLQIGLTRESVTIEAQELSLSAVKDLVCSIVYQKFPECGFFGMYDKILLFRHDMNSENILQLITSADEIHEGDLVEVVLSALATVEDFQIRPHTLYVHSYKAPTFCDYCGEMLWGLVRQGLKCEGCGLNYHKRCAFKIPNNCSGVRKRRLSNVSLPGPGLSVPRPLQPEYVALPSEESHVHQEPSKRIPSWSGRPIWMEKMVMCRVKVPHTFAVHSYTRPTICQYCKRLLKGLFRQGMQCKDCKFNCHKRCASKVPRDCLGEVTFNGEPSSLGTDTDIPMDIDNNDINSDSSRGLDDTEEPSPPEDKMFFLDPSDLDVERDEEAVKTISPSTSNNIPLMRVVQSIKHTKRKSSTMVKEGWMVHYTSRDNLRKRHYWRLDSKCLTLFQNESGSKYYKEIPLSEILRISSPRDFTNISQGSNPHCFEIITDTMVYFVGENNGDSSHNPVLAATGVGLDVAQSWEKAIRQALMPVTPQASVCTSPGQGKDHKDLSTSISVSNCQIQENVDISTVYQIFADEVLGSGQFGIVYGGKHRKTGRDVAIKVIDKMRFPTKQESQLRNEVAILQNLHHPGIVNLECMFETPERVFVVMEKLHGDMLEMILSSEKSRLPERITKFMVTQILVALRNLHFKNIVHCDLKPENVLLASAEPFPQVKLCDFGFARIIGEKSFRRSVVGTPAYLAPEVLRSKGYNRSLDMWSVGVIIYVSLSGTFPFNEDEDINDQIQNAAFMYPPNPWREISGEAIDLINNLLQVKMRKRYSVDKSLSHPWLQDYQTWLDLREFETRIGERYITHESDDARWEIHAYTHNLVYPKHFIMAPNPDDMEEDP
# In short: as §1
# RET (V804L) = molecular target: T6, RET (V804L) (Homo sapiens, UniProt P07949, V804L)
# T6 construct: purchased DiscoveRx Corporation
# In short: as §1
# PKN1 = molecular target: T7, PKN1 (Homo sapiens, UniProt Q16512)
# T7 construct: purchased DiscoveRx Corporation (KinomeScan)
# In short: as §1
# PAK3 = molecular target: T8, PAK3 (Homo sapiens, UniProt O75914)
# T8 construct: purchased DiscoveRx Corporation (KinomeScan panel)
# In short: as §1
# PIK3CA(E545A) = molecular target: T9, PIK3CA(E545A) (Homo sapiens, UniProt P42336, E545A)
# T9 construct: purchased DiscoveRx Corporation (KinomeScan)
# In short: as §1
# NLK = molecular target: T10, NLK (Homo sapiens, UniProt Q9UBE8)
# T10 construct: purchased DiscoveRx Corporation (KinomeScan panel)
# In short: as §1
# DYRK2 = molecular target: T11, DYRK2 (Homo sapiens, UniProt Q92630)
# T11 construct: purchased DiscoveRx Corporation (KinomeScan)
# In short: as §1
# [1] = molecular target: T12, RSK3(Kin.Dom.2-C-terminal) (Homo sapiens, UniProt Q15349)
# T12 construct: Kin.Dom.2; purchased DiscoveRx Corporation (KinomeScan)
# T12 sequence (Q15349 415-672 limits assumed): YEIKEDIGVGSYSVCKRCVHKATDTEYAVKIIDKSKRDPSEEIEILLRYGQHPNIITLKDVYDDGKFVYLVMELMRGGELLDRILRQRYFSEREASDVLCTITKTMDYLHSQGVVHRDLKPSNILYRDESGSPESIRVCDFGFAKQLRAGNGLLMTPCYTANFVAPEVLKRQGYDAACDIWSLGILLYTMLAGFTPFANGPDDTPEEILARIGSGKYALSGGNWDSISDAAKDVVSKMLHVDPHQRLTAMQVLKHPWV
# In short: as §1
# DAPK3 = molecular target: T13, DAPK3 (Homo sapiens, UniProt O43293)
# T13 construct: purchased DiscoveRx Corporation (KinomeScan)
# In short: as §1
# NEK11 = molecular target: T14, NEK11 (Homo sapiens, UniProt Q8NG66)
# T14 construct: purchased DiscoveRx Corporation (KinomeScan)
# In short: as §1
# FLT4 = molecular target: T15, FLT4 (Homo sapiens, UniProt P35916)
# T15 construct: purchased DiscoveRx Corporation (KinomeScan)
# In short: as §1
# ABL1-nonphosphorylated = molecular target: T16, ABL1-nonphosphorylated (Homo sapiens, UniProt P00519)
# T16 construct: purchased DiscoveRx Corporation (KinomeScan)
# In short: as §1
# DYRK1A = molecular target: T17, DYRK1A (Homo sapiens, UniProt Q13627)
# T17 construct: purchased DiscoveRx Corporation (KinomeScan)
# In short: as §1
# PHKG1 = molecular target: T18, PHKG1 (Homo sapiens, UniProt Q16816)
# T18 construct: purchased DiscoveRx Corporation (KinomeScan)
# In short: as §1
# ERK1 = molecular target: T19, ERK1 (Homo sapiens, UniProt P27361)
# T19 construct: purchased DiscoveRx Corporation (KinomeScan)
# In short: as §1
# DMPK2 = molecular target: T20, DMPK2 (Homo sapiens, UniProt Q6DT37)
# T20 construct: purchased DiscoveRx Corporation (KinomeScan)
# T20 sequence (Q6DT37 whole entry): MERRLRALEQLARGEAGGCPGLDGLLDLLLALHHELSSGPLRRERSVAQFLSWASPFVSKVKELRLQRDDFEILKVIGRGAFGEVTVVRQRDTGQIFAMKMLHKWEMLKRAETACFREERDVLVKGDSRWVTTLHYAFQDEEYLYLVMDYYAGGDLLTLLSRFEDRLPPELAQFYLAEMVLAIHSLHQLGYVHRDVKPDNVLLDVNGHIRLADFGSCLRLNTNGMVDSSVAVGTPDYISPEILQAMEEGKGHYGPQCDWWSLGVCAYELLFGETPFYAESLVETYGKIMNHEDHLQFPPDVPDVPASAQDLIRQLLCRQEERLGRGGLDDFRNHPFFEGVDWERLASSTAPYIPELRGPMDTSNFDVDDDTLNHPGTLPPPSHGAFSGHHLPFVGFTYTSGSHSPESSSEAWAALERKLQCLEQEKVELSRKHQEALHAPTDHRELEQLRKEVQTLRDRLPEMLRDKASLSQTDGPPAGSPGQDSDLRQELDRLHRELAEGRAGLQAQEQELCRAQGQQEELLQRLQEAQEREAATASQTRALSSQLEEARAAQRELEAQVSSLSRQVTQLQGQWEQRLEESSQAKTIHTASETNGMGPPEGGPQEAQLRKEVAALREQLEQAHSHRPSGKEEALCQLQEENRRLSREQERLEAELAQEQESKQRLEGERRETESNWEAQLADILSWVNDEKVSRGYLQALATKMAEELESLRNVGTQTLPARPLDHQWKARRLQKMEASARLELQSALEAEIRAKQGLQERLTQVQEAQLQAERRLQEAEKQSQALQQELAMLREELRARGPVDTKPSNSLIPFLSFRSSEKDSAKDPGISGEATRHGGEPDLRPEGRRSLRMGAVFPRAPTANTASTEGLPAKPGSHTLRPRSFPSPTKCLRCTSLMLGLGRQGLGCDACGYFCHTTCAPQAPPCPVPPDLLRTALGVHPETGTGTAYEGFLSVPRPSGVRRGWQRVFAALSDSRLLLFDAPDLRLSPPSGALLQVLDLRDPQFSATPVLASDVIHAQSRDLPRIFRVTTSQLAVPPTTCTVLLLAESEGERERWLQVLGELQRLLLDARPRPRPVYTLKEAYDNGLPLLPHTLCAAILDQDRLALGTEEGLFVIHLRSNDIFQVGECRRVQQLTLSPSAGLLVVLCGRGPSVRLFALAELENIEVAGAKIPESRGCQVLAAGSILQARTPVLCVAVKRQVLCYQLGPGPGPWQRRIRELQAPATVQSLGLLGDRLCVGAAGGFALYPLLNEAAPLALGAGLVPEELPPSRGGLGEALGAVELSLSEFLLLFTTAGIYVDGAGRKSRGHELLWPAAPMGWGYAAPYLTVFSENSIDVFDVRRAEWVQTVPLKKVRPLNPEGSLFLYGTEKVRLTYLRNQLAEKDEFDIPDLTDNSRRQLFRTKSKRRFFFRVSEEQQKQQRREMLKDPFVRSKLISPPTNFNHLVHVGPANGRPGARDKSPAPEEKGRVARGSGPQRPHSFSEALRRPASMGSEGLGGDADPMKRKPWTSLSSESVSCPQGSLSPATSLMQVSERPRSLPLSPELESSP
# In short: as §1
# MAP3K1 = molecular target: T21, MAP3K1 (Homo sapiens, UniProt Q13233)
# T21 construct: purchased DiscoveRx Corporation (KinomeScan)
# In short: as §1
# ERBB2 = molecular target: T22, ERBB2 (Homo sapiens, UniProt P04626)
# T22 construct: purchased DiscoveRx Corporation (KinomeScan)
# In short: as §1
# FYN = molecular target: T23, FYN (Homo sapiens, UniProt P06241)
# T23 construct: purchased DiscoveRx Corporation (KinomeScan)
# In short: as §1
# GAK = molecular target: T24, GAK (Homo sapiens, UniProt O14976)
# T24 construct: purchased DiscoveRx Corporation (KinomeScan)
# In short: as §1
# [2] = molecular target: T25, RSK4(Kin.Dom.1-N-terminal) (Homo sapiens, UniProt Q9UK32)
# T25 construct: Kin.Dom.1; purchased DiscoveRx Corporation (KinomeScan)
# T25 sequence (Q9UK32 73-330 limits assumed): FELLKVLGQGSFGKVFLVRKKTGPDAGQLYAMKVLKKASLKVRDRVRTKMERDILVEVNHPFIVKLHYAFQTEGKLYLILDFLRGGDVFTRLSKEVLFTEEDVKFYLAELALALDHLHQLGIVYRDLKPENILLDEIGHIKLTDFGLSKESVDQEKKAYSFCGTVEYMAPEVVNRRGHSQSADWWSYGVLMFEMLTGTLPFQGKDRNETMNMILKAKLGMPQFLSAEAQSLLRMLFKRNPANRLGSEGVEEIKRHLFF
# In short: as §1
# CASK = molecular target: T26, CASK (Homo sapiens, UniProt O14936)
# T26 construct: purchased DiscoveRx Corporation (KinomeScan)
# T26 sequence (O14936 whole entry): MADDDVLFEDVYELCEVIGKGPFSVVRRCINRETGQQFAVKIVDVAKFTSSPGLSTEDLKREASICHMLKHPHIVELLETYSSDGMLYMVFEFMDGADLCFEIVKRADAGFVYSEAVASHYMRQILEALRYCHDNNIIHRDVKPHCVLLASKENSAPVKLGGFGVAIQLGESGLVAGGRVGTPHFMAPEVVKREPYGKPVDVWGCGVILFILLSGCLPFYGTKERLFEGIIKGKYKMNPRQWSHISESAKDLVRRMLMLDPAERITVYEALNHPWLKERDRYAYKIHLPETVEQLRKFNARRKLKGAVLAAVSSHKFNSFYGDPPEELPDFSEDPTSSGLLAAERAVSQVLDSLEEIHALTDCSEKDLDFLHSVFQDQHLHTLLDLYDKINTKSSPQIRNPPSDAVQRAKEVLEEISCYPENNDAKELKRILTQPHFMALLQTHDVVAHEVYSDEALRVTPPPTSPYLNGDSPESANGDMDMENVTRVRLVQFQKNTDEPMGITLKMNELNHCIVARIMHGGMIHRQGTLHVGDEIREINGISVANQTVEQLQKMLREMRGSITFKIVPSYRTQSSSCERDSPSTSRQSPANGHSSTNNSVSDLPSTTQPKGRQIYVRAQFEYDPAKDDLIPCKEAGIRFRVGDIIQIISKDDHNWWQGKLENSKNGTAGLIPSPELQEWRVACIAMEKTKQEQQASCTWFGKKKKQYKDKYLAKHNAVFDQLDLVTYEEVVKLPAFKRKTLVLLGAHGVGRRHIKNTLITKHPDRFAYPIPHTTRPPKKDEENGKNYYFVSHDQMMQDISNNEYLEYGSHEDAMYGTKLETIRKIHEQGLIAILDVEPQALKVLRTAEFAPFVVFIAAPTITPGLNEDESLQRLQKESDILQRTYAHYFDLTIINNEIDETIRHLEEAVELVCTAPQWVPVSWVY
# In short: as §1
# IKK-beta = molecular target: T27, IKK-beta (Homo sapiens, UniProt O14920)
# T27 construct: purchased DiscoveRx Corporation (KinomeScan)
# In short: as §1
# [3] = molecular target: T28, ABL1(T315I)-nonphosphorylated (Homo sapiens, UniProt P00519, T315I)
# T28 construct: purchased DiscoveRx Corporation (KinomeScan)
# In short: as §1
# [4] = molecular target: T29, ABL1(F317I)-nonphosphorylated (Homo sapiens, UniProt P00519, F317I)
# T29 construct: purchased DiscoveRx Corporation (KinomeScan)
# In short: as §1
# JNK2 = molecular target: T30, JNK2 (Homo sapiens, UniProt P45984)
# T30 construct: purchased DiscoveRx Corporation (KinomeScan)
# In short: as §1
# NEK2 = molecular target: T31, NEK2 (Homo sapiens, UniProt P51955)
# T31 construct: purchased DiscoveRx Corporation (KinomeScan)
# In short: as §1
# EGFR(T790M) = molecular target: T32, EGFR(T790M) (Homo sapiens, UniProt P00533, T790M)
# T32 construct: purchased DiscoveRx Corporation (KinomeScan)
# In short: as §1
# CDK4-cyclinD1 = molecular target: T33, CDK4-cyclinD1 (Homo sapiens, UniProt P11802)
# T33 construct: purchased DiscoveRx Corporation (KinomeScan)
# T33 sequence (P11802 whole entry): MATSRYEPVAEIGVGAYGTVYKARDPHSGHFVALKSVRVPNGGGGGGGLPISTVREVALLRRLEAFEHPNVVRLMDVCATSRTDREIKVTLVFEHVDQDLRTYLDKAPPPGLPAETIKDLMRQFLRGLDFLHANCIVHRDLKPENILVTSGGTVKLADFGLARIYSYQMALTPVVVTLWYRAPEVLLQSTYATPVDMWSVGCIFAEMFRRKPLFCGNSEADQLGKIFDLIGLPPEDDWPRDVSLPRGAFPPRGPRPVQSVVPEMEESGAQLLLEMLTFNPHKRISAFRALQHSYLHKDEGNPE
# T33 sequence (P24385 whole entry partner): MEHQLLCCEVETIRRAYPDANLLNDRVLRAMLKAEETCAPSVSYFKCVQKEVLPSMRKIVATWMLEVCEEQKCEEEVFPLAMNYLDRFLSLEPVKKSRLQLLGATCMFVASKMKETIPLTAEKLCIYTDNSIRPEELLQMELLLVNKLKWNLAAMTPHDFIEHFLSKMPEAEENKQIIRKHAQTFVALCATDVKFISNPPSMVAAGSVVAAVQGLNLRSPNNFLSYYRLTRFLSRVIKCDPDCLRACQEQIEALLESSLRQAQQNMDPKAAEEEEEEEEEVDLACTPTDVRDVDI
# In short: as §1
# CLK2 = molecular target: T34, CLK2 (Homo sapiens, UniProt P49760)
# T34 construct: purchased DiscoveRx Corporation (KinomeScan)
# T34 sequence (P49760 whole entry): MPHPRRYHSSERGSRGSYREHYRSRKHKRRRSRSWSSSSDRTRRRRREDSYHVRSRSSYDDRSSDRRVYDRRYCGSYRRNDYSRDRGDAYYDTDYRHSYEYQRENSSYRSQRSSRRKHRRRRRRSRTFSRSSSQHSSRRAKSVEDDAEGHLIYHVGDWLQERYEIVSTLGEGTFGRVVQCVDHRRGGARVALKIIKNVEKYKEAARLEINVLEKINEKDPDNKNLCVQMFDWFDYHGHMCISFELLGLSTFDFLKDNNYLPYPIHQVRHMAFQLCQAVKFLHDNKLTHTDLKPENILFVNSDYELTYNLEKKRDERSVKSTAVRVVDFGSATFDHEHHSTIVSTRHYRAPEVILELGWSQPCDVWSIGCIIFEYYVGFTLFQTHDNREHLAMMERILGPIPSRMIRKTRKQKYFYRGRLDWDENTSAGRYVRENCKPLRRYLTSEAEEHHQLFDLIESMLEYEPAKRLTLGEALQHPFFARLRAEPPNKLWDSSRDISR
# In short: as §1
# LCK = molecular target: T35, LCK (Homo sapiens, UniProt P06239)
# T35 construct: purchased DiscoveRx Corporation (KinomeScan)
# In short: as §1
smiles,measurement,setting,value
"CCOP(=O)(CN1CCC(COc2cc3nccc(Oc4ccc(NC(=O)C5(C(=O)Nc6ccc(F)cc6)CC5)cc4F)c3cc2OC)CC1)OCC [Example 10, N1-[4-[[7-[[1-(diethoxyphosphorylmethyl)-4-piperidinyl]methoxyl]-6-methoxyl-4-quinolyl]oxyl]-3-fluorophenyl]-N1′-(4-fluorophenyl)cyclopropane-1,1-dicarboxamide]",% Ctrl@1000 nM,DDR1,0 % Ctrl
same,% Ctrl@1000 nM,LYN,18 % Ctrl
same,% Ctrl@1000 nM,MEK2,33 % Ctrl
same,% Ctrl@1000 nM,GRK4,78 % Ctrl
same,% Ctrl@1000 nM,PRKD3,88 % Ctrl
same,% Ctrl@1000 nM,RET (V804L),0.35 % Ctrl
same,% Ctrl@1000 nM,PKN1,100 % Ctrl
same,% Ctrl@1000 nM,PAK3,32 % Ctrl
same,% Ctrl@1000 nM,PIK3CA(E545A),74 % Ctrl
same,% Ctrl@1000 nM,NLK,100 % Ctrl
same,% Ctrl@1000 nM,DYRK2,100 % Ctrl
same,% Ctrl@1000 nM,[1],100 % Ctrl
same,% Ctrl@1000 nM,DAPK3,100 % Ctrl
same,% Ctrl@1000 nM,NEK11,100 % Ctrl
same,% Ctrl@1000 nM,FLT4,0.2 % Ctrl
same,% Ctrl@1000 nM,ABL1-nonphosphorylated,1.8 % Ctrl
same,% Ctrl@1000 nM,DYRK1A,100 % Ctrl
same,% Ctrl@1000 nM,PHKG1,100 % Ctrl
same,% Ctrl@1000 nM,ERK1,99 % Ctrl
same,% Ctrl@1000 nM,DMPK2,76 % Ctrl
same,% Ctrl@1000 nM,MAP3K1,80 % Ctrl
same,% Ctrl@1000 nM,ERBB2,96 % Ctrl
same,% Ctrl@1000 nM,FYN,48 % Ctrl
same,% Ctrl@1000 nM,GAK,100 % Ctrl
same,% Ctrl@1000 nM,[2],77 % Ctrl
same,% Ctrl@1000 nM,CASK,100 % Ctrl
same,% Ctrl@1000 nM,IKK-beta,100 % Ctrl
same,% Ctrl@1000 nM,[3],3.8 % Ctrl
same,% Ctrl@1000 nM,[4],42 % Ctrl
same,% Ctrl@1000 nM,JNK2,93 % Ctrl
same,% Ctrl@1000 nM,NEK2,100 % Ctrl
same,% Ctrl@1000 nM,EGFR(T790M),100 % Ctrl
same,% Ctrl@1000 nM,CDK4-cyclinD1,100 % Ctrl
same,% Ctrl@1000 nM,CLK2,78 % Ctrl
same,% Ctrl@1000 nM,LCK,2.2 % Ctrl

# Source: patent publication US8933230B2, “Phosphorus-containing group-substituted quinoline, its preparation process, medical composition containing the compounds and application” (priority 2011, dated 2015)
